# Earlier results, collected in patent US6902746B2, “Oral pharmaceutical compositions containing non-steroidal anti-inflammatory drugs and method for preparing the same” (Yung Shin Pharmaceutical Industrial Co., Ltd., priority 2002, dated 2005).
# Assays:
# [1] = test system: M.K. and δ opioid receptors
# [2] = animal studies; fraction of the effect of ketorolac tromethamine
# [3] = animal studies; fraction of the effect of ketorolac tromethamine; remark: listed apart in the source
# platelet aggregation = details: in vitro; fraction of the activity of ketorolac tromethamine
# [4] = in vivo
compound,measurement,setting,value
O=C(c1ccccc1)c1ccc2n1CCC2C(=O)O (stereo not shown) [ketorolac],binding to opioid receptors,[1],does not bind
O=C(c1ccc(O)cc1)c1ccc2n1CCC2C(=O)O (stereo not shown) [p-hydroxyketorolac],analgesic effect relative to ketorolac tromethamine,[2],1/100
same,anti-inflammatory effect relative to ketorolac tromethamine,[3],less than ⅕
same,anti-platelet aggregation activity relative to ketorolac tromethamine,platelet aggregation,1/25
"(±)-5-benzoyl-2,3-dihydro-1H-pyrrolizine-1-carboxylic acid 2-amino-2-(hydroxymethyl)-1,3-propanediol [Ketorolac tromethamine]",plasma half-lives,[4]; human,markedly prolonged
same,total clearance,[4]; human,decreased
same,administered drug eliminated in the urine,[4],about 75%
same,"administered drug, in its original form, found in the feces",[4],About 6%
same,bound to plasma proteins,[4],about 99%
same,mean elimination half-live,[4],5.3 h
same,mean volume of distribution at steady state,[4],0.11 L/kg
same,mean volume of distribution during the elimination phase,[4],0.17 to 0.25 L/kg
same,absorption in the presence of antacids,[4]; po,not affected
